Laboratory results from patent US5643912A, “Pyrazinoic acid esters as anti-mycobacterium avium agents” (The Research Foundation of State University of NY, priority 1996, dated 1997).
Converted amounts (≈) assume the structure as drawn.

Tests used:
M. avium 101 = assay: Broth dilution MIC vs M. avium 101; assay type: cell-based; conditions: Mycobacterium avium, 7H10 broth, pH 5.8
M. kansasii SWK = assay: Broth dilution MIC vs M. kansasii SWK; assay type: cell-based; conditions: Mycobacterium kansasii, 7H10 broth, pH 5.8
M. tuberculosis 102 = assay: Broth dilution MIC vs M. tuberculosis 102; assay type: cell-based; conditions: Mycobacterium tuberculosis, 102, pH 5.8, M. tuberculosis 102, 7H10 broth, read-out: MIC
[1] = tested on: Mycobacterium (M.) tuberculosis; conditions: in words; cited from earlier work
[2] = tested on: M. bovis or other mycobacteria; conditions: in words; cited from earlier work
M. avium = conditions: Heifets et al. 1986; cited from earlier work
[3] = in words; cited from earlier work
M. tuberculosis BUR = assay: Broth dilution MIC vs M. tuberculosis BUR; assay type: cell-based; conditions: Mycobacterium tuberculosis, M. tuberculosis BUR (footnote b), 7H10 broth, pH 5.8
[4] = tested on: a number of bacteria including M. tuberculosis; conditions: Suzuki et al. 1958; cited from earlier work
M. avium LPR = assay: Broth dilution MIC vs M. avium LPR; assay type: cell-based; conditions: Mycobacterium avium, M. avium LPR (footnote a), 7H10 broth, pH 5.8

Compound | MIC (M. avium 101) | MIC (M. kansasii SWK) | MIC (M. tuberculosis 102) | other results
CCCCCCCCCCCOC(=O)c1cnc(Cl)cn1 [Example 25] | 16 µg/mL (≈ 51.1 µM) | 0.06 µg/mL (≈ 0.192 µM) | 0.25 µg/mL (≈ 0.799 µM) | 
CC(C)(C)OC(=O)c1cnc(Cl)cn1 [Example 35] | 128 µg/mL (≈ 596 µM) | < 1 µg/mL | 2 µg/mL (≈ 9.32 µM) | 
O=C(Oc1ccc(F)cc1)c1cnccn1 [Example 3] | 128 µg/mL (≈ 587 µM) | 64 µg/mL (≈ 293 µM) | 32 µg/mL (≈ 147 µM) | 
CCCCCCC(CCCCCC)OC(=O)c1cnc(Cl)cn1 [Example 16] | 16 µg/mL (≈ 46.9 µM) | 0.5 µg/mL (≈ 1.47 µM) | 0.25 µg/mL (≈ 0.733 µM) | 
COCCOCCOC(=O)c1cnc(Cl)cn1 [Example 9] | 64 µg/mL (≈ 246 µM) | 2 µg/mL (≈ 7.67 µM) | 2 µg/mL (≈ 7.67 µM) | 
COC(=O)c1cnc(I)cn1 [Example 39] | 256 µg/mL (≈ 970 µM) | 8 µg/mL (≈ 30.3 µM) | 16 µg/mL (≈ 60.6 µM) | 
Cc1cc(C)c(OC(=O)c2cnccn2)c(C)c1 [Example 55] | 64 µg/mL (≈ 264 µM) | 2 µg/mL (≈ 8.25 µM) | 1 µg/mL (≈ 4.13 µM) | 
C/C=C/COC(=O)c1cnccn1 [Example 54] |  |  | 2 µg/mL (≈ 11.2 µM) | 
NC(=O)c1cnccn1 [pyrazinamide] |  |  |  | activity against M. tuberculosis [1]: only active against Mycobacterium (M.) tuberculosis; activity against M. bovis or other mycobacteria [2]: not active; activity against M. avium (M. avium): inactive; hepatotoxicity [3]: hepatotoxicity
CCCCCCC(C)OC(=O)c1cnc(Cl)cn1 (stereo not drawn) [Example 8] | 32 µg/mL (≈ 118 µM) | < 0.25 µg/mL | < 0.25 µg/mL | 
CCCCCCCCCC(C)OC(=O)c1cnc(Cl)cn1 (stereo not drawn) [Example 36] | 16 µg/mL (≈ 51.1 µM) | 0.25 µg/mL (≈ 0.799 µM) | 0.25 µg/mL (≈ 0.799 µM) | 
C=CCOC(=O)c1cnccn1 [Example 42] |  | 3 µg/mL (≈ 18.3 µM) |  | MIC (M. tuberculosis BUR): 6.3 µg/mL (≈ 38.4 µM)
CCCCCC(C)OC(=O)c1cnc(Cl)cn1 (stereo not drawn) [Example 24] | 32 µg/mL (≈ 125 µM) | < 0.13 µg/mL | 0.06 µg/mL (≈ 0.234 µM) | 
CCCCCC(C)(CCCCC)OC(=O)c1cnc(Cl)cn1 [Example 45] | > 64 µg/mL | 8 µg/mL (≈ 24.5 µM) | 8 µg/mL (≈ 24.5 µM) | 
CCCCCCCCCCOC(=O)c1cnccn1 [Example 1] | 32 µg/mL (≈ 121 µM) | 0.25 µg/mL (≈ 0.946 µM) | 0.5 µg/mL (≈ 1.89 µM) | 
O=C(OCC(F)(F)F)c1cnccn1 [Example 41] |  | 100 µg/mL (≈ 485 µM) |  | MIC (M. tuberculosis BUR): 25 µg/mL (≈ 121 µM)
CCCCCCCCCCOC(=O)c1cnc(Cl)cn1 [Example 6] | 32 µg/mL (≈ 107 µM) | 0.5 µg/mL (≈ 1.67 µM) | 0.5 µg/mL (≈ 1.67 µM) | 

Compound | MIC (M. avium 101) | MIC (M. kansasii SWK) | MIC (M. tuberculosis 102) | other results
O=C(Oc1c(Br)cc(Br)cc1Br)c1cnccn1 [Example 4] | 128 µg/mL (≈ 293 µM) | 64 µg/mL (≈ 146 µM) | 32 µg/mL (≈ 73.2 µM) | 
pyrazinoate ester of chloramphenicol |  |  |  | activity against bacteria including M. tuberculosis [4]: inactive
CCCOC(=O)c1cnc(Cl)cn1 [Example 15] | 16 µg/mL (≈ 79.8 µM) | 0.25 µg/mL (≈ 1.25 µM) | 0.06 µg/mL (≈ 0.299 µM) | 
C=CCOC(=O)c1cnc(Cl)cn1 [Example 33] | 64 µg/mL (≈ 322 µM) | < 1 µg/mL | 1 µg/mL (≈ 5.04 µM) | 
O=C(Oc1ccc(-c2ccccc2)cc1)c1cnccn1 [Example 67] |  | 25 µg/mL (≈ 90.5 µM) |  | 
Cc1ccc(OC(=O)c2cnccn2)cc1 [Example 64] |  | 100 µg/mL (≈ 467 µM) | 100 µg/mL (≈ 467 µM) | 
CCCCCCC(C)OC(=O)c1cnc(F)cn1 (stereo not drawn) [Example 29] | 32 µg/mL (≈ 126 µM) | 0.03 µg/mL (≈ 0.118 µM) | 2 µg/mL (≈ 7.86 µM) | 
CCCOC(=O)c1cnccn1 [Example 43] |  | 3 µg/mL (≈ 18.1 µM) |  | MIC (M. tuberculosis BUR): 3 µg/mL (≈ 18.1 µM)
O=C(OCCCl)c1cnccn1 [Example 62] |  | 25 µg/mL (≈ 134 µM) |  | MIC (M. tuberculosis BUR): 6.3 µg/mL (≈ 33.8 µM)
Cc1cc(C(C)(C)C)c(OC(=O)c2cnccn2)c(C(C)(C)C)c1 [Example 51] | > 256 µg/mL | > 16 µg/mL | 128 µg/mL (≈ 392 µM) | 
CCCCCCCCCCCCCCCOC(=O)c1cnccn1 [Example 2] |  | 1 µg/mL (≈ 2.99 µM) | 0.06 µg/mL (≈ 0.179 µM) | MIC (M. avium LPR): 8 µg/mL (≈ 23.9 µM)
CCCCOCCOCCOC(=O)c1cnc(Cl)cn1 [Example 11] | 64 µg/mL (≈ 211 µM) | 2 µg/mL (≈ 6.61 µM) | 0.5 µg/mL (≈ 1.65 µM) | 
CCCCCCCCCOC(=O)c1cnc(Cl)cn1 [Example 20] | 32 µg/mL (≈ 112 µM) | < 0.13 µg/mL | < 0.03 µg/mL | 
CCCCCCOC(=O)c1cnc(Cl)cn1 [Example 13] | 32 µg/mL (≈ 132 µM) | < 0.03 µg/mL | 0.13 µg/mL (≈ 0.536 µM) | 
CC(C)COC(=O)c1cnccn1 [Example 49] | 256 µg/mL (≈ 1420 µM) | 16 µg/mL (≈ 88.8 µM) | 2 µg/mL (≈ 11.1 µM) | 
CC1CCC(C(C)C)C(OC(=O)c2cnccn2)C1 (stereo not drawn) [Example 56] |  |  | 2 µg/mL (≈ 7.62 µM) | 
